Source: patent US8889677B2, “Substituted triazoles useful as mGlu5 receptor modulators” (Boehringer Ingellheim International GmbH, priority 2012, dated 2014)

Biological target: T1, human recombinant mGluR5 (Homo sapiens, UniProt P41594)
T1 construct: expressed in transfected cells; host or cells: HEK 293 cell line cultured with tetracycline, hygromycin and geneticin; tetracycline removed 3-7 days before the assay
Experiment: positive modulation of mGluR5, calcium based FLIPR assay in HEK 293 cells
Conditions: HEK 293 cell line expressing human recombinant mGluR5; EC50 of the modulation of the glutamate response (glutamate approx. 5% basal stimulation); peak height of Ca release fluorescence signal
In short: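 Potentiation EC50 derived by nonlinear fit of peak calcium fluorescence after a near-5%-maximal glutamate challenge, following 5 min compound exposure (intrinsic activity also recorded). Dye-loaded recombinant human mGluR5 HEK 293 cells in Ringer solution pH 7.4, 1% DMSO; plate controls were vehicle (100%) and 10 μM CDPPB (200%).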

T1 sequence (P41594 21-1212): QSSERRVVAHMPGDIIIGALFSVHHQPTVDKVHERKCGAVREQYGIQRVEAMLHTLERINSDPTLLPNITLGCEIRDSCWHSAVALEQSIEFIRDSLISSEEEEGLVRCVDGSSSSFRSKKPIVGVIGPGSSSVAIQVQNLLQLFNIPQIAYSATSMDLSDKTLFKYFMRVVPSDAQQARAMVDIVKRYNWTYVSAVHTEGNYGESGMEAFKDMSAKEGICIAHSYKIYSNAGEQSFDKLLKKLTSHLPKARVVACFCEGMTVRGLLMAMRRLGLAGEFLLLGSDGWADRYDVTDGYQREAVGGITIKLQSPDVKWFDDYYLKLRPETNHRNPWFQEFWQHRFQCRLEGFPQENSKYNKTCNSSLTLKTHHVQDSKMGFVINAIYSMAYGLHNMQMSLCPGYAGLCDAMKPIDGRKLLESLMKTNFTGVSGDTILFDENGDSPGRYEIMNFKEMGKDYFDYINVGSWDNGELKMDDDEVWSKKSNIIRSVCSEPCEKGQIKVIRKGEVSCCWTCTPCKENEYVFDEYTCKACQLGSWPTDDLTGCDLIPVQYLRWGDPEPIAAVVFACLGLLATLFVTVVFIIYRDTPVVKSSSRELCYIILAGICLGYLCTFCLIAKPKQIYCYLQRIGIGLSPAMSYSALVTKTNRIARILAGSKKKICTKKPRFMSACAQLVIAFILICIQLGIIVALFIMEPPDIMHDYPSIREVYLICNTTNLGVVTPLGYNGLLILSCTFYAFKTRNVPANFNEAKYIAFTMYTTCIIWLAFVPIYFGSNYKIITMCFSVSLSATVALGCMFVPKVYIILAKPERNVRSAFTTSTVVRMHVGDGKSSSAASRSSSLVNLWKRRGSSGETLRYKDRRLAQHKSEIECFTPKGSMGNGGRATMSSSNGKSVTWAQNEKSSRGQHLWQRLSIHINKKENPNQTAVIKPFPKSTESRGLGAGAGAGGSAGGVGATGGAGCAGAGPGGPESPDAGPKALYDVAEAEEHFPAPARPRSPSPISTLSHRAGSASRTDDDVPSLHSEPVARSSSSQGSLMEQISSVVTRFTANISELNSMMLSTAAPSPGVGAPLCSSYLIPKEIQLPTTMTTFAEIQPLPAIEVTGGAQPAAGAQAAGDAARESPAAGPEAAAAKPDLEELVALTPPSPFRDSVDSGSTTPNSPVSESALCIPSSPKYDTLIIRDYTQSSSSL

Row | EC50 [µM] | Compound
1 | 0.286 | O=C(Cn1nc(-c2ccc(F)cc2)nc1-c1ccc(F)cc1)N1CCN(c2cc(NCc3ccccn3)ncn2)CC1 [Example 07.08.17.]
2 | 0.455 | CN(c1cc(N2CCN(C(=O)Cn3nc(-c4ccc(F)cc4)nc3-c3ccc(F)cc3)CC2)ncn1)C1CC1 [Example 07.08.18.]
3 | 0.208 | CCN(C)c1cc(N2CCN(C(=O)Cn3nc(-c4ccc(F)cc4)nc3-c3ccc(F)cc3)CC2)ncn1 [Example 07.08.19.]
4 | 0.155 | O=C(Cn1nc(-c2ccc(F)cc2)nc1-c1ccc(F)cc1)N1CCN(c2cc(NC3CCC3)ncn2)CC1 [Example 07.08.20.]
5 | 0.201 | COCCNc1cc(N2CCN(C(=O)Cn3nc(-c4ccc(F)cc4)nc3-c3ccc(F)cc3)CC2)ncn1 [Example 07.08.21.]
6 | 0.28 | O=C(Cn1nc(-c2ccc(F)cc2)nc1-c1ccc(F)cc1)N1CCN(c2cc(N3CCC3)ncn2)CC1 [Example 07.08.22.]
7 | 1.59 | CN1CCN(c2cc(N3CCN(C(=O)Cn4nc(-c5ccc(F)cc5)nc4-c4ccc(F)cc4)CC3)ncn2)CC1 [Example 07.08.23.]
8 | 0.191 | CNc1cc(N2CCN(C(=O)Cn3nc(-c4ccc(F)cc4)nc3-c3ccc(F)cc3)CC2)ncn1 [Example 07.08.24.]
9 | 0.059 | O=C(Cn1nc(-c2ccc(F)cc2)nc1-c1ccc(F)cc1)N1CCN(c2cc(OCC3CCCO3)ncn2)CC1 (stereo not shown) [Example 07.09.02.]
10 | 0.058 | O=C(Cn1nc(-c2ccc(F)cc2)nc1-c1ccc(F)cc1)N1CCN(c2cc(OC[C@H]3CCCO3)ncn2)CC1 [Example 07.09.03.]
11 | 0.064 | O=C(Cn1nc(-c2ccc(F)cc2)nc1-c1ccc(F)cc1)N1CCN(c2cc(OCCOCCO)ncn2)CC1 [Example 07.09.04.]
12 | 0.041 | O=C(Cn1nc(-c2ccc(F)cc2)nc1-c1ccc(F)cc1)N1CCN(c2cc(OCC3CCOC3)ncn2)CC1 (stereo not shown) [Example 07.09.05.]
13 | 0.13 | COCCOCCOc1cc(N2CCN(C(=O)Cn3nc(-c4ccc(F)cc4)nc3-c3ccc(F)cc3)CC2)ncn1 [Example 07.09.06.]
14 | 0.11 | O=C(Cn1nc(-c2ccc(F)cc2)nc1-c1ccc(F)cc1)N1CCN(c2cc(OCCN3CCOCC3)ncn2)CC1 [Example 07.09.07.]
15 | 0.074 | CC(=O)N1CCC(Oc2cc(N3CCN(C(=O)Cn4nc(-c5ccc(F)cc5)nc4-c4ccc(F)cc4)CC3)ncn2)CC1 [Example 07.09.08.]
16 | 0.109 | O=C(Cn1nc(-c2ccc(F)cc2)nc1-c1ccc(F)cc1)N1CCN(c2cc(OC3CCCOC3)ncn2)CC1 (stereo not shown) [Example 07.09.09.]
17 | 0.052 | O=C(Cn1nc(-c2ccc(F)cc2)nc1-c1ccc(F)cc1)N1CCN(c2cc(OCC3CCCCO3)ncn2)CC1 (stereo not shown) [Example 07.09.10.]
18 | 0.056 | O=C(Cn1nc(-c2ccc(F)cc2)nc1-c1ccc(F)cc1)N1CCN(c2cc(O[C@H]3CCOC3)ncn2)CC1 [Example 07.09.11.]
19 | 0.17 | O=C1CCCN1CCOc1cc(N2CCN(C(=O)Cn3nc(-c4ccc(F)cc4)nc3-c3ccc(F)cc3)CC2)ncn1 [Example 07.09.12.]
20 | 0.047 | O=C(Cn1nc(-c2ccc(F)cc2)nc1-c1ccc(F)cc1)N1CCN(c2cc(OCc3ccccn3)ncn2)CC1 [Example 07.09.13.]
21 | 0.038 | COC[C@@H](C)Oc1cc(N2CCN(C(=O)Cn3nc(-c4ccc(F)cc4)nc3-c3ccc(F)cc3)CC2)ncn1 [Example 07.09.14.]
22 | 0.224 | O=C(Cn1nc(-c2ccc(F)cc2)nc1-c1ccc(F)cc1)N1CCN(c2cc(O[C@H]3COC[C@H]3O)ncn2)CC1 [Example 07.09.15.]
23 | 0.173 | O=C(Cn1nc(-c2ccc(F)cc2)nc1-c1ccc(F)cc1)N1CCN(c2cc(OCCOCCOCCO)ncn2)CC1 [Example 07.09.16.]
24 | 0.106 | O=C(Cn1nc(-c2ccc(F)cc2)nc1-c1ccc(F)cc1)N1CCN(c2cc(OCCn3ccnc3)ncn2)CC1 [Example 07.09.17.]

Row | Compound | EC50 [µM]
25 | COCCCCOc1cc(N2CCN(C(=O)Cn3nc(-c4ccc(F)cc4)nc3-c3ccc(F)cc3)CC2)ncn1 [Example 07.09.01., 2-(3,5-Bis-(4-fluoro-phenyl)-(1,2,4)triazol-1-yl]-1-(4-(6-(4-methoxy-butoxy)-pyrimidin-4-yl)-piperazin-1-yl)-ethanone] | 0.068
